Assay results from US20050227995A1, “Phenyl sulfoxides and phenyl sulfones” (priority 2002, published 2005).
pIC50: −log10 of the molar value.

Test system: Aβ release from human cell lines (H4, HEK293) stably overexpressing human APP695 with Swedish double mutation
Assay: Determination of the inhibition of A-beta release in cell culture (IGEN analyzer detection)
Type: cell-based
Conditions: H4/HEK293 cells overexpressing human APP695 Swedish mutant; supernatant analyzed after 16 h; 0.5% DMSO
From the text: Determination of the Inhibition of A-Beta Release in Cell Culture
In order to be able to measure the inhibition of Aβ release, human cell lines (H4, HEK293) which stably overexpress the 695 amino acid-long, neuronal splice variant of human APP were generated. In order to increase the generated Aβ amount further, in addition a “Swedish” familiar Alzheimer's double mutation in which the lysine and methionine residues respectively at positions 595 and 596 of the molecule APP695 are replaced by the amino acids asparagine and leucine was introduced. The cells were cultivated in Dulbecco's modified Eagles medium (DMEM, with 4500 mg/l glucose; 110 mg/l sodium pyruvate); 5% by volume fetal calf serum (FCS); 1% nonessential amino acids) to which the geniticin G418 selection marker had been added [all cell culture methods were carried out by standard methods; Sambrook, J., Fritsch, E. F., and Maniatis, T. (1989), Molecular cloning: A laboratory manual. Cold Spring Harbour Laboratory Press]. In order to test the effect of substances on the inhibition of APP processing, about 20 000 cells were diluted in a 96 multititer plate. The next day, the culture medium was removed and replaced by biotin- and serum-free medium, in which the substances were diluted to reach a concentration of 10 μM with a dimethyl sulfoxide (DMSO) content of 0.5%. 0.5% DMSO served as control. For substances showing inhibition of the Aβ generation, additionally dose-effect relations were investigated by using different concentrations. After 16 h, the supernatant was removed and analyzed.
b) Detection of Aβ with the IGEN Analyzer
The total amount of Aβ was detected using the following components: 50 μl of cell culture supernatant were mixed with 25 μl of biotinylated antibody 4G8 (recognizes amino acid 17-25 of Aβ), 25 μl of ruthenium complex-labeled antibody 6E10 (recognizes the N terminus of Aβ) and 50 μl of magnetic streptavidin-coupled beads. Aβ40 was detected by using the following components: 50 μl of cell culture supernatant were mixed with 25 μl of biotinylated antibody G2-10 (recognizes the C terminus of Aβ40), 25 μl of ruthenium complex-labeled antibody W02 (recognizes the N terminus of Aβ), and 50 μl of magnetic streptavidin-coupled beads. In parallel, serial dilutions were made with synthetic A040. The samples were shaken at room temperature and then measured using an IGEN analyzer. Typically, each sample was measured three times in at least two independent experiments. The antibodies and solutions used were prepared according to the instructions of the manufacturer of the analyzer, IGEN, Inc. (Gaitersburg, Md., USA). The measurement was likewise carried out as stated by the manufacturer.

| Compound | pIC50 |
| --- | --- |
| C[C@H](COC(=O)N1CCN(C)CC1)[C@@H](c1cc(F)ccc1F)S(=O)(=O)c1ccc(Cl)cc1 (single isomer, unassigned) [Example 95] | 7.00 to 8.00 |
| C[C@H](COC(=O)N1CCC(CCO)CC1)[C@@H](c1cc(F)ccc1F)S(=O)(=O)c1ccc(Cl)cc1 (single isomer, unassigned) [Example 42] | 7.00 to 8.00 |
| CC(COC(=O)N1CCNC(=O)C1)C(c1cc(F)ccc1F)S(=O)(=O)c1ccc(Br)cc1 (single isomer, unassigned) [Example 100] | 7.00 to 8.00 |
| C[C@H](COC(=O)N1CCC(O)CC1)[C@@H](c1cc(F)ccc1F)S(=O)(=O)c1ccc(Cl)cc1 (single isomer, unassigned) [Example 43] | 7.00 to 8.00 |
